{
  "source": "patent US20060009918A1",
  "about": "“Methods and materials for enhancing the effects of protein modulators” (priority 2004, published 2006)",
  "target": "T1, carbonic anhydrase (bovine erythrocyte, Sigma Chemical Company, mixture of isozymes) (Bos taurus, UniProt P00921)",
  "T1 construct": "purchased Sigma Chemical Company; host or cells: bovine erythrocyte",
  "T1 sequence (P00921 2-260 limits assumed)": "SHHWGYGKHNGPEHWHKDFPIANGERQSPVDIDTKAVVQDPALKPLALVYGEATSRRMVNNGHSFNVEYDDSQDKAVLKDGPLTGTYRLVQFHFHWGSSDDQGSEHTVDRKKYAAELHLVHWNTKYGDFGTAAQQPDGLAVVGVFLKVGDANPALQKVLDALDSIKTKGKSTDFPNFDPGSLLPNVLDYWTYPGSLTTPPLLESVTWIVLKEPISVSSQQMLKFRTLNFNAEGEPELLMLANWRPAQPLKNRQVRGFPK",
  "assay": "Binding constants by isothermal titration calorimetry",
  "procedure": "The binding constants of these complexes with carbonic anhydrase (bovine erythrocyte, Sigma Chemical Company, mixture of isozymes) were determined employing isothermal titration calorimetry (25 mM HEPES buffer, pH=7.0), and the results are presented in Table 1.\nThe titration procedures employing isothermal titration calorimetry were carried out employing the instrument ITC-4200 (Calscorp Inc., Provo, Utah). The reference cell (volume: 1.32 mL) was filled with 25 mM HEPES buffer, pH=7.0. Carbonic anhydrase was taken in the sample cell (1.32 mL, […] protein in 25 mM HEPES buffer, pH=7.0). The copper complexes (1 mM) were dissolved in the same buffer and were added to the enzyme solution (42×5 μL injections). Heats of dilution for the complexes were separately determined by injecting the solution of the complexes in buffer (taken in the sample cell). The heats of dilution were subtracted from the titration data files, and the resultant data were processed by the software provided by the manufacturer (Bind Works 3.0).",
  "key": {"[1]": {"conditions": "isothermal titration calorimetry, 25 mM HEPES buffer, pH=7.0"}},
  "note": "pKd: −log10 of the molar value.",
  "data": [
    {"smiles": "NS(=O)(=O)c1ccccc1", "note": "[Control 6, Benzene sulfonamide, reference compound]", "values": [
      {"measurement": "pKd", "setting": "carbonic anhydrase, summary statement", "result": 3.92},
      {"measurement": "Binding constant", "setting": "[1]", "result": "(9.0 ± 0.1) × 10^3"},
      {"measurement": "Enthalpy", "setting": "[1]", "result": "-31.2 ± 1.6", "unit": "kcal/mol"},
      {"measurement": "affinity for the enzyme (in words)", "setting": "titration with the enzyme", "result": "weak affinity"}
    ]}
  ]
}
